Assay results: patent US12065443B2, “Compounds and pharmaceutical compositions thereof for the treatment of diseases” (priority 2017, dated 2024)
Like-named read-outs stand apart in the source and are kept apart here.

Experiments:
[1] = system: LPS-induced TNFα secretion in monocyte-derived macrophages (MdM); test: MdM assay: LPS-triggered TNFα (ELISA); assay type: cell-based, human; settings: Homo sapiens, Macrophage, LPS-triggered TNFα inhibition
How it was run: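 Human CD14+ monocytes isolated from buffy-coat PBMCs by magnetic beads, differentiated to macrophages; on day 10 compound preincubated 1 h at 37 °C, then LPS 200 ng/mL added (0.2% DMSO). Supernatant taken after 20 h; TNFα quantified by sandwich ELISA against standard curve.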

[2] = system: LPS driven TNFα secretion in Peripheral Blood Mononuclear Cells (PBMC); test: cells; assay type: cell-based; settings: Homo sapiens, LPS 1 ng/mL, supernatant after 18-20 h, ELISA
Protocol: This assay measures the inhibition of LPS driven TNFα secretion by a test compound in Peripheral Blood Mononuclear Cells (PBMC), which in turn correlates with SIK inhibition.
PBMCs are isolated from human blood samples (buffy coats). The buffy coat is aseptically transferred into a 50 mL Falcon™ tube, and diluted 1/2 in Phosphate Buffered Saline (PBS). […] The tubes are centrifuged for 35 min at 400× g in temperature controlled centrifuge, without brake, at 25° C. PBMCs are aspirated from the white interface layer between sample and Lymphoprep. PBMCs are washed five times in PBS. […] The PBMCs are finally seeded at 400,000 PBMC/160 μL/96-well.
A compound dilution plate is made in 100% DMSO by 3-fold dilution of 10 mM stock solution of test compound. An intermediate dilution plate (10× final concentration) is made by diluting the compound dilution plate 50-fold in RPMI medium.
20 μL of the 10× final concentration compound is added to the cells and incubated for 1 hour at 37° C. before addition of trigger. No trigger conditions/trigger conditions are spiked with equal final DMSO concentrations of 0.2% DMSO. 20 μL of 10×LPS (final concentration 1 ng/mL) solution are added to all wells except for the ‘no trigger wells’ where 20 μL medium is added. Supernatant is collected after 18-20 h for IL-10 and TNFα determination using ELISA.
The plate is then washed once with PBST (PBS+0.05% Tween20) and once with PBS followed by the addition of 100 μL of blocking buffer (1% Bovine Serum Albumin (BSA)-5% Sucrose) and plates are sealed and incubated for at least 4 h at RT. After washing the plate once with PBST and once with PBS, 40 μL of standard or sample are added (TNFα standard curve is prepared using a 1/2 serial dilution starting from 16000 pg/mL; dilutions are made in dilution buffer (PBS+1% BSA)). Plates are washed twice with PBST, and once with PBS, after which 35 μL of the detection antibody is added (final concentration 0.25 μg/mL diluted in dilution buffer) and plates are incubated for at least 2 h at RT. Plates are washed twice with PBST, and once with PBS, where after 35 μL of Strep-HRP conjugate (0.5 μg/mL final concentration diluted in dilution buffer) is added. Plates are incubated in the dark, at RT for at least 45 min but no longer than 1 hour. Plates are washed twice with PBST, and once with PBS. Thereafter, 50 μL of luminol substrate is added to each well (prepared according to manufacturer's instructions), and incubated for 5 min at RT protected from light.
To measure the inhibition of LPS induced TNFα, percentage inhibition (PIN) values are calculated for all concentrations tested, compared to controls.
PIN values are plotted in concentration-response and EC50 values are derived using GraphPad Prism Software, applying 4-parameter nonlinear regression (sigmoidal) curve fitting.

SIK1 [3] = target: T1, SIK1 (Homo sapiens, UniProt P57059); test: biochemical; settings: 33P radioactive SIK kinase assay, AMARA peptide, 10 μM ATP; read-out: SIK1 IC50
T1 construct: purchased Carna Biosciences 02-131
How it was run: (§1)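 AMARA peptide phosphorylation by SIK1–3 is quantified through ^33P uptake from a labeled/unlabeled ATP blend. Staurosporine at 10 μM final defines full inhibition, 1% DMSO the uninhibited signal. Quench uses phosphoric acid; counting follows filter capture.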

SIK3 [4] = target: T2, SIK3 (Homo sapiens, UniProt Q9Y2K2); test: biochemical
T2 construct: purchased SignalChem S12-11G-100
How it was run: as §1

SIK2 [5] = target: T3, SIK2 (Homo sapiens, UniProt Q9H0K1); test: biochemical; settings: 33P radioactive SIK kinase assay, AMARA peptide, 10 μM ATP
T3 construct: purchased ThermoFisher Scientific PV4792
How it was run: as §1

SIK1 [6] = target: T1, SIK1; test: biochemical; settings: ADP-Glo SIK kinase assay
How it was run: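 Wells with 1% DMSO or 10 μM staurosporine (final) define the control window. The kinase reaction with substrate and ATP runs 120 min at RT, followed by ADP-Glo detection: ATP depletion (40 min) and ADP-derived luminescence (30 min).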

SIK3 [7] = target: T2, SIK3; test: biochemical; settings: ADP-Glo SIK kinase assay
How it was run: (§2)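 Enzyme–substrate mix was started with ATP and incubated 120 min at RT. ADP formed was quantified by ADP-Glo: 40 min ATP depletion, then 30 min detection reagent converting ADP to ATP for luciferase luminescence, which rises with kinase activity. Controls: 1% DMSO and 10 μM staurosporine (final).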

SIK2 [8] = target: T3, SIK2; test: biochemical; settings: ADP-Glo SIK kinase assay
How it was run: as §2

[9] = system: LPS triggered IL-10 secretion in monocyte-derived macrophages (MdM); test: MdM assay: LPS-triggered IL-10 (ELISA); assay type: cell-based, human; settings: maximal fold change vs LPS only, median across assays
How it was run: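 CD14+ monocytes isolated from human buffy-coat PBMCs and differentiated to macrophages for 10 days. Cells pre-treated with compound 1 h at 37° C (0.2% DMSO), then stimulated with 200 ng/mL LPS; IL-10 in supernatant at 2 h measured by ELISA (A450). Maximal fold change versus LPS only reported as median of two or more runs.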

T2 sequence (Q9Y2K2 whole entry): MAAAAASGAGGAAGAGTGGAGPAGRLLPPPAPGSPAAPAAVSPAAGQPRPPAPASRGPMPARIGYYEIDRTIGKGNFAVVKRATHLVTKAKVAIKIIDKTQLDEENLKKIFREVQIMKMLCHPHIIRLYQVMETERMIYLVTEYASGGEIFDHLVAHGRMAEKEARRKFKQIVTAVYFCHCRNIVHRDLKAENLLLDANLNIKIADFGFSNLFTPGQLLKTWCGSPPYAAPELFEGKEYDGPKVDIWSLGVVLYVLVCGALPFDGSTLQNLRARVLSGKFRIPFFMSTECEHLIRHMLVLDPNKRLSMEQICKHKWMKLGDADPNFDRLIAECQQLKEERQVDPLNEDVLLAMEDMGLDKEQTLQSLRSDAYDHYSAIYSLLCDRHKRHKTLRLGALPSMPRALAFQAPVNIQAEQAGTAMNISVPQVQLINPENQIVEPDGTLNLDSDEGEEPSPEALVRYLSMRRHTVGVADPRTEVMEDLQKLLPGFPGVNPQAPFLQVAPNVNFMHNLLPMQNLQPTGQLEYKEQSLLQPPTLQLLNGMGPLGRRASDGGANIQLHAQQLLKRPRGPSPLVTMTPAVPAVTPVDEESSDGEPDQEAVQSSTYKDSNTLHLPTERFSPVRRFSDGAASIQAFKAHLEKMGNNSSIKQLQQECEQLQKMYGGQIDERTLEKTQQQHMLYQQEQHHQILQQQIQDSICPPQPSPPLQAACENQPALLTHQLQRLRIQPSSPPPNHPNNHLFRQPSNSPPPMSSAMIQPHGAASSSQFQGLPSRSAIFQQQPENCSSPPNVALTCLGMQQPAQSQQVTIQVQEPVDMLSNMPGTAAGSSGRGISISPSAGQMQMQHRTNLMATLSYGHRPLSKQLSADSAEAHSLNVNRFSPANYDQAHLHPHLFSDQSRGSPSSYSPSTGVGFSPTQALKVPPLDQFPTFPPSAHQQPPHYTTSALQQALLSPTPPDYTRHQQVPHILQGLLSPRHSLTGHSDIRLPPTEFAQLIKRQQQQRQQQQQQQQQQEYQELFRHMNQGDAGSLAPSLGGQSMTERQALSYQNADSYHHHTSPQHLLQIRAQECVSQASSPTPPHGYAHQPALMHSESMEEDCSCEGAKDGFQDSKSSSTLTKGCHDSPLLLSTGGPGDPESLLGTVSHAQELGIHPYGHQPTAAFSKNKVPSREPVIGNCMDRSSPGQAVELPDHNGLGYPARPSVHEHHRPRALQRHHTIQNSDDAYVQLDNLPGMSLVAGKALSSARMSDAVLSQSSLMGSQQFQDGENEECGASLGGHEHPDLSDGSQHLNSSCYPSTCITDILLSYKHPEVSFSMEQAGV
T3 sequence (Q9H0K1 whole entry): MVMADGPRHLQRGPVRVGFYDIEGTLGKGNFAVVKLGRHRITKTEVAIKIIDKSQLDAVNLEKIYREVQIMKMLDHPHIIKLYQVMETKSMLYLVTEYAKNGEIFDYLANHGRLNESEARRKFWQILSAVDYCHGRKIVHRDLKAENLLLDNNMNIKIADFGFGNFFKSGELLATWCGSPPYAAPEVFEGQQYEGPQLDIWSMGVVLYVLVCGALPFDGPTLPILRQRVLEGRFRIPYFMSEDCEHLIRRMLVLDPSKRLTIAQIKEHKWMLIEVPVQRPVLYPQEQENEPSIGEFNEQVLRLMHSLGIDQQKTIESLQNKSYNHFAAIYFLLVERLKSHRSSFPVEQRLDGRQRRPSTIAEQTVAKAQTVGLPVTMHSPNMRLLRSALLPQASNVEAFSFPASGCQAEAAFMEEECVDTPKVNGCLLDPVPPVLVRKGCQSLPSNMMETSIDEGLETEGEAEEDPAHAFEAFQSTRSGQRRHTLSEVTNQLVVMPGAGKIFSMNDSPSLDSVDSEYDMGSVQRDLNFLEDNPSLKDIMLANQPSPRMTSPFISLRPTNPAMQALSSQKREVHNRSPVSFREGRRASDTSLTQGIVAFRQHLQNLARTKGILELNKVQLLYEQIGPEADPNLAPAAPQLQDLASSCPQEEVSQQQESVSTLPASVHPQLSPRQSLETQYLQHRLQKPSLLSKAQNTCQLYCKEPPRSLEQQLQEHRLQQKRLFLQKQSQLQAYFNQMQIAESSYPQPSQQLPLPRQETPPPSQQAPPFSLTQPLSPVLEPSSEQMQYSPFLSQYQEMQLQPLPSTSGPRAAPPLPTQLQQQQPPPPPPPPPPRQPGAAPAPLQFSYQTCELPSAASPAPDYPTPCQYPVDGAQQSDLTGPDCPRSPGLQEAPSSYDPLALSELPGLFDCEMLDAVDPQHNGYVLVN
T1 sequence (P57059 whole entry): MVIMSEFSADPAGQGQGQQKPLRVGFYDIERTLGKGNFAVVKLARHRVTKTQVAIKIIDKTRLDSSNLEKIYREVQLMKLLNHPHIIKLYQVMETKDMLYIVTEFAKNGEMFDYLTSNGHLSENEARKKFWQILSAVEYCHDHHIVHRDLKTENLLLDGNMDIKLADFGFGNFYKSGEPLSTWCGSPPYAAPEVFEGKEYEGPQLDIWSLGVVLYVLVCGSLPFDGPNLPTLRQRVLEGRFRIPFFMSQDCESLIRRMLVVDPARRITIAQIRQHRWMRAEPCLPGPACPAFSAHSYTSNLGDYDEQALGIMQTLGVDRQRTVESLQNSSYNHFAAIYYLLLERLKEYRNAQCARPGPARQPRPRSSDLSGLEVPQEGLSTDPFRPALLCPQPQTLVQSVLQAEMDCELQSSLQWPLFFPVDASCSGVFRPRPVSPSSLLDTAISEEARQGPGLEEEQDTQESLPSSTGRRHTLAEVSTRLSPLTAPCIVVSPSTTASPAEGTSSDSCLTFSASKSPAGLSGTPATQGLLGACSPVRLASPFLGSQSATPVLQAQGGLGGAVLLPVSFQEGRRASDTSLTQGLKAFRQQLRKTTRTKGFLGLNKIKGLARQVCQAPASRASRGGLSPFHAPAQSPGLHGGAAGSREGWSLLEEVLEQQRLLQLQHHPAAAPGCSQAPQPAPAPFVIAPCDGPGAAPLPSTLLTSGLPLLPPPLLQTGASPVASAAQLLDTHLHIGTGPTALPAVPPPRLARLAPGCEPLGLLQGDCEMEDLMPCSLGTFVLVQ

EC50 [1] [nM] | IC50 (SIK1 [3]) [nM] | IC50 (SIK3 [4]) [nM] | IC50 (SIK2 [5]) [nM] | IC50 (SIK1 [6]) [nM] | IC50 (SIK3 [7]) [nM] | IC50 (SIK2 [8]) [nM] | Compound | EC50 [2] [nM] | IL-10 FCmax median [9]
0.1 to 100 | 0.01 to 10 | 0.01 to 10 | 0.01 to 10 | 0.01 to 10 | 0.01 to 10 | 0.01 to 10 | COc1cc(-c2cnc3cc(-c4cnn(C)c4)ccn23)cc(OC)c1C(=O)NCC(F)(F)F [Cpd 88] | 0.1 to 100 | ++ (>1.5-4.5)
0.1 to 100 | 0.01 to 10 | 0.01 to 10 | 0.01 to 10 |  |  |  | COc1cc(-n2cnc3cc(-c4cnn(CCN5CCOCC5)c4)ccc32)cc(OC(F)F)c1C(=O)NC1CC1 [compound 56, N-cyclopropyl-2-(difluoromethoxy)-6-methoxy-4-[5-[1-(2-morpholinoethyl)pyrazol-4-yl]benzimidazol-1-yl]benzamide] | 0.1 to 100 | ++ (>1.5-4.5)
100 to 1000 | 10 to 100 | 0.01 to 10 | 0.01 to 10 |  |  |  | CCNC(=O)c1c(OC)cc(-n2cnc3cc(-c4cnn(CCN5CCOCC5)c4)ccc32)cc1OC(F)F [compound 57, 2-(difluoromethoxy)-N-ethyl-6-methoxy-4-[5-[1-(2-morpholinoethyl)pyrazol-4-yl]benzimidazol-1-yl]benzamide] | 0.1 to 100 | ++ (>1.5-4.5)
100 to 1000 | 10 to 100 | 0.01 to 10 | 0.01 to 10 |  |  |  | COc1cc(-n2cnc3cc(-c4cnn(C)c4)ccc32)cc(OC)c1C(=O)NCC(F)F [compound 78, N-(2,2-difluoroethyl)-2,6-dimethoxy-4-[5-(1-methylpyrazol-4-yl)benzimidazol-1-yl]benzamide] | 0.1 to 100 | ++ (>1.5-4.5)
0.1 to 100 | 10 to 100 | 0.01 to 10 | 0.01 to 10 |  |  |  | COCCn1cc(-c2ccc3c(c2)ncn3-c2cc(OC)c(C(=O)NCC(F)(F)F)c(OC)c2)cn1 [compound 84, 2,6-dimethoxy-4-[5-[1-(2-methoxyethyl)pyrazol-4-yl]benzimidazol-1-yl]-N-(2,2,2-trifluoroethyl)benzamide] | 0.1 to 100 | ++ (>1.5-4.5)
0.1 to 100 | 10 to 100 | 0.01 to 10 | 0.01 to 10 |  |  |  | COc1cc(-n2cnc3cc(-c4cnn(C5COC5)c4)ccc32)cc(OC)c1C(=O)NCC(F)(F)F [compound 85, 2,6-dimethoxy-4-[5-[1-(oxetan-3-yl)pyrazol-4-yl]benzimidazol-1-yl)-N-(2,2,2-trifluoroethyl)benzamide] | 0.1 to 100 | ++ (>1.5-4.5)
0.1 to 100 | 10 to 100 | 0.01 to 10 | 0.01 to 10 |  |  |  | COc1cc(-n2cnc3cc(-c4cnn(C5CC5)c4)ccc32)cc(OC)c1C(=O)NCC(F)(F)F [compound 96, 4-[5-(l-cyclopropylpyrazol-4-yl)benzimidazol-1-yl]-2,6-dimethoxy-N-(2,2,2-trifluoroethyl)benzamide] | 0.1 to 100 | ++ (>1.5-4.5)
0.1 to 100 | 0.01 to 10 | 0.01 to 10 | 0.01 to 10 |  |  |  | COc1cc(-c2cnc3cc(-c4cnn(C)c4)ccn23)cc(OC)c1C(=O)NC1CC1 [compound 102, N-cyclopropyl-2,6-dimethoxy-4-[7-(1-methylpyrazol-4-yl)imidazo[1,2-a]pyridin-3-yl]benzamide] | 0.1 to 100 | ++ (>1.5-4.5)
0.1 to 100 | 0.01 to 10 | 0.01 to 10 | 0.01 to 10 |  |  |  | COc1cc(-c2cnc3cc(-c4cnn(C)c4)cnn23)cc(OC)c1C(=O)NC1CC1 [compound 112, N-cyclopropyl-2,6-dimethoxy-4-[7-(1-methylpyrazol-4-yl)imidazo[1,2-b]pvridazin-3-yl]benzamide] | 0.1 to 100 | + (≤1.5)
0.1 to 100 | 0.01 to 10 | 0.01 to 10 | 0.01 to 10 |  |  |  | CCNC(=O)c1c(OC)cc(-c2cnc3cc(-c4cnn(C)c4)ccn23)cc1OC(F)F [compound 116, 2-(difluoromethoxy)-N-ethyl-6-methoxy-4-[7-(1-methylpyrazol-4-yl)imidazo[1,2-a]pyridin-3-yl]benzamide] | 0.1 to 100 | ++ (>1.5-4.5)
0.1 to 100 | 0.01 to 10 | 0.01 to 10 | 0.01 to 10 |  |  |  | COc1cc(-c2cnc3cc(-c4cnn(C)c4)ccn23)cc(OC)c1C(=O)NCC#N [compound 122, N-(cyanomethyl)-2,6-dimethoxy-4-[7-(1-methylpyrazol-4-yl)imidazo[1,2-a]pyridin-3-yl]benzamide] | 0.1 to 100 | ++ (>1.5-4.5)
0.1 to 100 | 10 to 100 | 0.01 to 10 | 0.01 to 10 |  |  |  | CCNC(=O)c1c(OC)cc(-c2cnc3cc(-c4cc(C)no4)ccn23)cc1OC(F)F [compound 123, 2-(difluoromethoxy)-N-ethyl-6-methoxy-4-[7-(3-methylisoxazol-5-yl)imidazo[1,2-a]pyridin-3-yl]benzamide] | 0.1 to 100 | ++ (>1.5-4.5)
100 to 1000 | 10 to 100 | 10 to 100 | 10 to 100 |  |  |  | COc1cc(-c2cnc3cc(-c4cnn(C)c4)ccn23)cc(OC)c1C(=O)N[C@@H](C)C(F)(F)F [compound 132, 2,6-dimethoxy-4-[7-(1-methylpyrazol-4-yl)imidazo[1,2-a]pyridin-3-yl]-N-[(1S)-2,2,2-trifluoro-1-methyl-ethyl]benzamide] | 100 to 1000 | + (≤1.5)
100 to 1000 | 10 to 100 | 10 to 100 | 10 to 100 | 10 to 100 | 0.01 to 10 | 0.01 to 10 | CCN1Cc2cc(-c3cnc4cc(-c5cnn(C)c5)ccn34)cc(OC)c2C1=O [compound 176, 2-ethyl-7-methoxy-5-[7-(1-methylpyrazol-4-yl)imidazo[1,2-a]pyridin-3-yl]isoindolin-1-one] | 0.1 to 100 | 
100 to 1000 | 10 to 100 | 10 to 100 | 10 to 100 | 10 to 100 | 0.01 to 10 | 0.01 to 10 | CCNC(=O)c1c(OC)cc(-n2cnc3cc(-c4cnn(C)c4)cnc32)cc1OC(F)F [compound 177, 2-(difluoromethoxy)-N-ethyl-6-methoxy-4-[6-(1-methylpyrazol-4-yl)imidazo[4,5-b]pyridin-3-yl]benzamide] | 0.1 to 100 | 
0.1 to 100 | 10 to 100 | 0.01 to 10 | 0.01 to 10 |  |  |  | CCNC(=O)c1c(OC)cc(-c2cnc3cc(-c4cn(C)cn4)ccn23)cc1OC(F)F [compound 178, 2-(difluoromethoxy)-N-ethyl-6-methoxy-4-[7-(1-methylimidazol-4-yl)imidazo[1,2-a]pyridin-3-yl]benzamide] | 0.1 to 100 | ++ (>1.5-4.5)
100 to 1000 | 10 to 100 | 10 to 100 | 10 to 100 | 10 to 100 | 0.01 to 10 | 0.01 to 10 | COc1cc(-n2cnc3cc(-c4cnn(C)c4)ccc32)cc(OC)c1C(=O)N1CC(C#N)C1 [compound 192, 1-[2,6-dimethoxy-4-[5-(1-methylpyrazol-4-yl)benzimidazol-1-yl]benzoyl]azetidine-3-carbonitrile] | 100 to 1000 | 
0.1 to 100 | 10 to 100 | 0.01 to 10 | 0.01 to 10 |  |  |  | COc1cc(-c2cnc3cc(-c4cnn(C)c4)ccn23)cc(F)c1C(=O)NCC(F)(F)F [compound 203, 2-fluoro-6-methoxy-4-[7-(1-methylpyrazol-4-yl)imidazo[1,2-a]pyridin-3-yl]-N-(2,2,2-trifluoroethyl)benzamide] | 0.1 to 100 | +++ (>4.5)
